Laboratory results as given in ChEMBL document CHEMBL1201862, “PubChem BioAssay data set” (2004).
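Growth conditions: 96-well plates. Treatment: test compound, 48 hours, 5 concentrations. Analysis: linear interpolation between bracketing concentrations; unreached endpoints set to highest concentration. The concentration for 50% growth inhibition is given as GI50.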 Activity calls are given as the source filed them. Cut-off read from the data, not from the text of the source: active = GI50 up to about 1.1 µM and inactive = higher.

Assays:
Experiment in all cases: DTP human tumour cell line panel, 48 h
[1] = test system: 786-0
[2] = test system: A498
[3] = test system: A549
[4] = test system: ACHN
[5] = test system: BT-549
[6] = test system: CAKI-1
[7] = test system: CCRF-CEM
[8] = test system: COLO 205
[9] = test system: DU-145
[10] = test system: EKVX
[11] = test system: HCT-116
[12] = test system: HCT-15
[13] = test system: HL-60
[14] = test system: HOP-62
[15] = test system: HT-29
[16] = test system: Hs-578T
[17] = test system: IGROV-1
[18] = test system: K562
[19] = test system: KM12
[20] = test system: LOX IMVI
[21] = test system: M14
[22] = test system: MCF7
[23] = test system: MDA-MB-231
[24] = test system: MDA-MB-435
[25] = test system: MDA-N
[26] = test system: MOLT-4
[27] = test system: Malme-3M
[28] = test system: NCI-H226
[29] = test system: NCI-H23
[30] = test system: NCI-H522
[31] = test system: NCI/ADR-RES
[32] = test system: OVCAR-5
[33] = test system: OVCAR-8
[34] = test system: PC-3
[35] = test system: RPMI-8226
[36] = test system: RXF 393
[37] = test system: SF-268
[38] = test system: SF-295
[39] = test system: SF-539
[40] = test system: SK-MEL-28
[41] = test system: SK-MEL-2
[42] = test system: SK-MEL-5
[43] = test system: SK-OV-3
[44] = test system: SN12C
[45] = test system: SNB-19
[46] = test system: SNB-75
[47] = test system: SR
[48] = test system: SW-620
[49] = test system: T47D
[50] = test system: TK-10
[51] = test system: U-251
[52] = test system: UACC-257
[53] = test system: UACC-62
[54] = test system: UO-31
[55] = test system: HCC 2998
[56] = test system: NCI-H460
[57] = test system: OVCAR-3
[58] = test system: OVCAR-4

For `COc1cc(C(=O)CBr)c(OC)cc1C`, the GI50 [1] was > 100 µM (inactive), the GI50 [2] was 84.7 µM (inactive) and the GI50 [3] was > 100 µM (inactive). For the same compound, the GI50 [4] was > 100 µM (inactive), the GI50 [5] was 36.2 µM (inactive) and the GI50 [6] was > 100 µM (inactive). The GI50 [7] was > 100 µM (inactive), the GI50 [8] was > 100 µM (inactive) and the GI50 [9] was > 100 µM (inactive). For the same compound, the GI50 [10] was > 100 µM (inactive), the GI50 [11] was > 100 µM (inactive) and the GI50 [12] was greater than 100 µM. The GI50 [13] was > 100 µM (inactive), the GI50 [14] was > 100 µM (inactive) and the GI50 [15] was > 100 µM (inactive). For the same compound, the GI50 [16] was 72.4 µM (inactive), the GI50 [17] was > 100 µM (inactive) and the GI50 [18] was > 100 µM (inactive). The GI50 [19] was > 100 µM (inactive), the GI50 [20] was > 100 µM (inactive) and the GI50 [21] was > 100 µM (inactive). The GI50 [22] was > 100 µM (inactive), the GI50 [23] was > 100 µM (inactive) and the GI50 [24] was > 100 µM (inactive). The GI50 [25] was > 100 µM (inactive), the GI50 [26] was > 100 µM (inactive) and the GI50 [27] was > 100 µM (inactive). The GI50 [28] was 75.5 µM (inactive), the GI50 [29] was > 100 µM (inactive) and the GI50 [30] was > 100 µM (inactive). The GI50 [31] was > 100 µM (inactive), the GI50 [32] was > 100 µM (inactive) and the GI50 [33] was > 100 µM (inactive). The GI50 [34] was > 100 µM (inactive), the GI50 [35] was > 100 µM (inactive) and the GI50 [36] was > 100 µM (inactive). The GI50 [37] was > 100 µM (inactive), the GI50 [38] was > 100 µM (inactive) and the GI50 [39] was > 100 µM (inactive). The GI50 [40] was > 100 µM (inactive), the GI50 [41] was > 100 µM (inactive) and the GI50 [42] was 52.7 µM (inactive). The GI50 [43] was > 100 µM (inactive), the GI50 [44] was > 100 µM (inactive) and the GI50 [45] was > 100 µM (inactive). For the same compound, the GI50 [46] was > 10 µM (inactive), the GI50 [47] was > 100 µM (inactive) and the GI50 [48] was > 100 µM (inactive). The GI50 [49] was > 100 µM (inactive), the GI50 [50] was > 100 µM (inactive) and the GI50 [51] was > 100 µM (inactive). For the same compound, the GI50 [52] was > 100 µM (inactive), the GI50 [53] was 85.7 µM (inactive) and the GI50 [54] was 97.3 µM (inactive).
With `COc1ccc(-n2c(C)nc3ccc(/N=C/c4ccccc4)cc3c2=O)cc1` the GI50 [1] was > 100 µM (inactive), the GI50 [2] was > 100 µM (inactive) and the GI50 [4] was > 100 µM (inactive). The GI50 [5] was > 100 µM (inactive), the GI50 [6] was > 100 µM (inactive) and the GI50 [8] was > 100 µM (inactive). For the same compound, the GI50 [9] was > 100 µM (inactive), the GI50 [10] was > 100 µM (inactive) and the GI50 [55] was > 100 µM (inactive). For the same compound, the GI50 [11] was > 100 µM (inactive), the GI50 [12] was greater than 100 µM and the GI50 [13] was > 100 µM (inactive). For the same compound, the GI50 [14] was > 100 µM (inactive), the GI50 [15] was > 100 µM (inactive) and the GI50 [16] was > 100 µM (inactive). The GI50 [17] was > 100 µM (inactive), the GI50 [18] was > 100 µM (inactive) and the GI50 [19] was > 100 µM (inactive). The GI50 [20] was > 100 µM (inactive), the GI50 [22] was > 100 µM (inactive) and the GI50 [23] was > 100 µM (inactive). For the same compound, the GI50 [24] was > 100 µM (inactive), the GI50 [25] was > 100 µM (inactive) and the GI50 [26] was > 100 µM (inactive). The GI50 [27] was > 100 µM (inactive), the GI50 [28] was > 100 µM (inactive) and the GI50 [29] was > 100 µM (inactive). The GI50 [56] was > 100 µM (inactive), the GI50 [30] was > 100 µM (inactive) and the GI50 [31] was > 100 µM (inactive). The GI50 [57] was > 100 µM (inactive), the GI50 [58] was > 100 µM (inactive) and the GI50 [32] was > 100 µM (inactive). For the same compound, the GI50 [33] was > 100 µM (inactive), the GI50 [34] was > 100 µM (inactive) and the GI50 [35] was 51.2 µM (inactive). The GI50 [36] was > 100 µM (inactive), the GI50 [37] was > 100 µM (inactive) and the GI50 [38] was > 100 µM (inactive). The GI50 [40] was > 100 µM (inactive), the GI50 [42] was > 100 µM (inactive) and the GI50 [44] was > 100 µM (inactive). For the same compound, the GI50 [45] was > 100 µM (inactive), the GI50 [46] was > 100 µM (inactive) and the GI50 [47] was > 100 µM (inactive). For the same compound, the GI50 [48] was > 100 µM (inactive), the GI50 [49] was > 100 µM (inactive) and the GI50 [50] was > 100 µM (inactive). The GI50 [51] was > 100 µM (inactive), the GI50 [52] was > 100 µM (inactive) and the GI50 [53] was > 100 µM (inactive). The GI50 [54] was > 100 µM (inactive).
